Experimental data published in publication PMC2791876, “Comparison of effects of green tea catechins on apicomplexan hexose transporters and mammalian orthologues” (Molecular and Biochemical Parasitology, 2009).

What was measured:
[1] = biological target: T1, Plasmodium falciparum hexose transporter (PfHT) (Plasmodium falciparum, UniProt O97467); settings: cited from earlier work; for Km: substrate Km, read-out: Km for transport via PfHT
T1 construct: expressed in transfected cells; host or cells: Xenopus laevis oocytes
T1 sequence (O97467 1-504): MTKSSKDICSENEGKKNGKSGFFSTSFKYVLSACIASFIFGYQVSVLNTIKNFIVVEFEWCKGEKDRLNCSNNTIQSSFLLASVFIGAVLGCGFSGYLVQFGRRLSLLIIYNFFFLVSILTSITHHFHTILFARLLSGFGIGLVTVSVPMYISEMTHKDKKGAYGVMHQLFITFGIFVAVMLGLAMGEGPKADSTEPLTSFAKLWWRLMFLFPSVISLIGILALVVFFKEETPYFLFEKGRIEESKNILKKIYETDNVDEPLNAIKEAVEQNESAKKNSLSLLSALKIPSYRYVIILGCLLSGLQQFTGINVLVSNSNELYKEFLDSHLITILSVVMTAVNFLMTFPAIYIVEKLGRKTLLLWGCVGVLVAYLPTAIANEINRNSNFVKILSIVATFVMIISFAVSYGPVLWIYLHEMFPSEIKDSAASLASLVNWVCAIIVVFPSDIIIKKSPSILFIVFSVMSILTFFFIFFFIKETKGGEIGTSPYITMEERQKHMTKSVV

[2] = biological target: T2, mammalian facilitative glucose transporter 1 (GLUT1) (Homo sapiens, UniProt P11166); assay: D-glucose transport via GLUT1 expressed in Xenopus laevis oocytes; format: cell-based; settings: D-glucose (38 μM) transport, X. laevis oocytes, room temperature; mean ± SEM (n ≥ 3)
T2 construct: expressed in transfected cells; host or cells: Xenopus laevis oocytes
T2 sequence (P11166 1-492): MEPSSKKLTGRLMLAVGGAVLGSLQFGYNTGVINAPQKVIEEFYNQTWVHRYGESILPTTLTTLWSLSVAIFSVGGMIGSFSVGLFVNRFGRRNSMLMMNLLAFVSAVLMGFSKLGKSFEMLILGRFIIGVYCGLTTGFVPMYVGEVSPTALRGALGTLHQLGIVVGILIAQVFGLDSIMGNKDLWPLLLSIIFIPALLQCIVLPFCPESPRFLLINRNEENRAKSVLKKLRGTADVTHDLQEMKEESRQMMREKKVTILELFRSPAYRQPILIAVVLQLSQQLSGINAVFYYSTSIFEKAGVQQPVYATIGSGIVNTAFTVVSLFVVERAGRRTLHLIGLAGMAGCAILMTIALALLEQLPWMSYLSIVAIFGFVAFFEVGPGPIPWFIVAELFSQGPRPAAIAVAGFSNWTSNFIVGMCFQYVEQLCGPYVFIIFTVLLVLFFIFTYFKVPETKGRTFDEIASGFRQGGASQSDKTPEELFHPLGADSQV
Description: (§1) The effect of the green tea catechins, EC, ECG, EGC and EGCG, on D-glucose transport via PfHT, GLUT1 and the Babesia bovis hexose transporter 1 (BboHT1; [12]) and D-fructose transport via GLUT5 was assayed in Xenopus laevis oocytes expressing each of the hexose transporters, using methods described previously.

GLUT5 = biological target: T3, GLUT5 (Homo sapiens, UniProt P22732); assay: D-fructose transport via GLUT5 expressed in Xenopus laevis oocytes; format: cell-based, mammalian; settings: D-fructose (100 μM) transport, X. laevis oocytes, room temperature; mean ± SEM (n ≥ 3)
T3 construct: expressed in transfected cells; host or cells: Xenopus laevis oocytes
T3 sequence (P22732 1-501): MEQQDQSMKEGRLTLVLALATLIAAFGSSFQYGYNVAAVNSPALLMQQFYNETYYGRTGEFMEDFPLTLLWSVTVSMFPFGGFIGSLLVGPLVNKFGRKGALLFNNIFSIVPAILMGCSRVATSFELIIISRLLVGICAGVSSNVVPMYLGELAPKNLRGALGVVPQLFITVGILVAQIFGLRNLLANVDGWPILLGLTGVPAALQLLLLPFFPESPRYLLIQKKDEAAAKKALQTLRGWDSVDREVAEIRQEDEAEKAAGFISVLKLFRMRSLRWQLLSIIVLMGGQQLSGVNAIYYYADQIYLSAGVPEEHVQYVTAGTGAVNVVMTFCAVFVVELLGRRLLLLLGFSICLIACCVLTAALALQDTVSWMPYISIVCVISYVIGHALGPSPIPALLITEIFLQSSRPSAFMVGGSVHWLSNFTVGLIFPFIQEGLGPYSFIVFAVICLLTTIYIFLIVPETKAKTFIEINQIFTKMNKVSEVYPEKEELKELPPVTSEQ
Description: as §1

[3] = biological target: T4, Babesia bovis hexose transporter 1 (BboHT1) (Babesia bovis, UniProt B0LKY8); assay: D-glucose transport via BboHT1 expressed in Xenopus laevis oocytes; format: cell-based; settings: X. laevis oocytes, room temperature, mean ± SEM (n ≥ 3)
T4 sequence (B0LKY8 entry or part of it): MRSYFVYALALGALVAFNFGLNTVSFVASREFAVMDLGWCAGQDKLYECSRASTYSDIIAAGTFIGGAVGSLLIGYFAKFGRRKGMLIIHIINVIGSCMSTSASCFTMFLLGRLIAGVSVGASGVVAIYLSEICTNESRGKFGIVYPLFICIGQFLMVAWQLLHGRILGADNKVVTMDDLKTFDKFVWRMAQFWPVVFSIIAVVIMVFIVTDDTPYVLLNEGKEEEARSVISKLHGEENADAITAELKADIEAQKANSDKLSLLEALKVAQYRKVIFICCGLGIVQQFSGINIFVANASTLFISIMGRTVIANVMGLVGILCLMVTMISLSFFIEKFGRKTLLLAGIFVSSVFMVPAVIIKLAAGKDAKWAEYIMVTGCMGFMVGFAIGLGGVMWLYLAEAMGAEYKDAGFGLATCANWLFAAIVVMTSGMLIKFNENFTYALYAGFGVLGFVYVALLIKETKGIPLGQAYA
Description: as §1, with “previously. The compounds were tested initially at a concentration of 0.5 mM (data not shown).” for “previously.”

[4] = tested on: Babesia divergens (strain Rouen 1987); assay: Babesia divergens growth inhibition; format: cell-based; settings: B. divergens, mean ± SEM; for inhibition of parasite growth: 200 μM, n = 3
Description: (§2) Furthermore, given that catechins are competitive inhibitors of D-glucose transport mediated by GLUT1 [8], the relationship between external D-glucose concentration and IC50 values was examined. […] The effect of catechins was also tested on Babesia divergens (strain Rouen 1987) growth as described.

[5] = biological target: T1, Plasmodium falciparum hexose transporter (PfHT); assay: cell-based; settings: D-glucose (38 μM) transport, X. laevis oocytes, room temperature; mean ± SEM (n ≥ 3)
Description: as §1

L323N BboHT1 = assay: D-glucose uptake by mutant L323N BboHT1 in X. laevis oocytes; format: cell-based, Babesia bovis; settings: 0.5 mM catechin; L323N vs wild-type; P < 0.001
GLUT1 = biological target: GLUT1; design: method as in PMID 12970085; settings: human erythrocytes, zero-trans D-glucose efflux; read-out: Ki for D-glucose transport via GLUT1, published previously; cited from earlier work
PfHT = biological target: T5, PfHT (Plasmodium falciparum, UniProt O97467); assay: 3-O-methyl-D-glucose (3OMG) transport via PfHT in X. laevis oocytes; format: cell-based; settings: 3OMG (17 μM), mean ± SEM, n = 3
T5 construct: expressed in transfected cells; host or cells: Xenopus laevis oocytes

P. falciparum (3D7) = assay: P. falciparum growth in vitro; format: cell-based, Plasmodium falciparum; settings: P. falciparum 3D7, 12 mM D-glucose, 48 h; mean ± SEM (n ≥ 3); read-out: IC50 parasite growth
Description: as §2

[6] = biological target: T4, Babesia bovis hexose transporter 1 (BboHT1); design: method as in PMID 18638508; settings: cited from earlier work
B. bovis parasites = tested on: B. bovis parasites; design: method as in PMID 18638508; settings: cited from earlier work

Row | Compound | Ki [2] [µM] | Ki (GLUT5) [µM] | Ki [3] [µM] | Ki [5] [µM] | other results
1 | CO[C@@H]([C@H](O)[C@H](O)CO)[C@@H](O)C=O [3OMG, 3-O-methyl-D-glucose] |  |  |  |  | Km [1]: 1300 µM
2 | OC[C@H]1OC(O)[C@H](O)[C@@H](O)[C@@H]1O (stereo partly drawn) [D-glucose] |  |  |  |  | Km [1]: 1000 µM
3 | Oc1cc(O)c2c(c1)O[C@H](c1ccc(O)c(O)c1)[C@H](O)C2 [EC, (−)-epicatechin] | ~500 | > 500 | 108 ± 52 | > 500 | inhibition at 200 µM ([4]; Babesia divergens, n = 3, read-out: inhibition of parasite growth): 66 ± 14%; effect on D-glucose uptake by mutant versus wild-type BboHT1 (L323N BboHT1): affected significantly less
4 | O=C(O[C@@H]1Cc2c(O)cc(O)cc2O[C@@H]1c1ccc(O)c(O)c1)c1cc(O)c(O)c(O)c1 [ECG, (−)-epicatechin-gallate] | 68 ± 18 | 117 ± 54 | > 500 | 45 ± 10 | Ki (GLUT1): 0.14 µM; Ki (PfHT): 18 ± 3 µM; IC50 (P. falciparum (3D7)): 32 ± 1 µM
5 | Oc1cc(O)c2c(c1)O[C@H](c1cc(O)c(O)c(O)c1)[C@H](O)C2 [EGC, (−)-epigallocatechin] | > 500 | > 500 | 168 ± 83 | > 500 | inhibition of parasite growth [4]: 30 ± 10%
6 | C=CCCCCCCCCCO[C@H]1[C@H](O)[C@@H](CO)OC(O)[C@@H]1O (stereo partly drawn) [compound 3361] |  |  |  |  | inhibition of BboHT1 [6]: good inhibitor; killing of B. bovis parasites in culture (B. bovis parasites): did not kill; inhibition of D-glucose transport via PfHT (mode) [1]: specific and competitive inhibitor
7 | (−)-epigallocatechin-gallate [EGCG] | 105 ± 18 | 113 ± 48 | > 500 | 90 ± 24 | Ki (GLUT1): 0.97 µM; inhibition of parasite growth [4]: 71 ± 2%; IC50 (P. falciparum (3D7)): 17 ± 3 µM
